# Results published in patent US20230413822A1, “ORAL CANINE FEED AND METHODS FOR C[…] INFESTATIONS IN A CANINE” (In the Bowl Animal Health, Inc., priority 2021, published 2023).
# Assays:
# [1] = Plasma concentration of mivorilaner in dogs fed medicated daily feed (Example 6); assay type: in vivo; parameters: unit not given here; settings: Group 4-318 mg/kg feed (anticipated 3 mg/kg daily), Time 336 hr
# Description: Methods: A pool of dogs are to be preliminarily infested with ˜50 unfed adult R. sanguineus ticks in order to produce dogs that can suitably sustain a reliable infestation rate, defined as approximately 25% of attached ticks being live at the end of a 72-hour period. The 24 dogs with the highest live attached tick counts are to be selected for inclusion in the study. The 18 dogs with the highest live attached tick counts are to be randomly assigned to one of a control group and 2 treatment groups. The 6 dogs with the next highest live attached tick counts are to be assigned to a third treatment group.
# The dogs are to be housed individually during the study period and are to have ad libitum access to water.
# Each dog in a treatment group (test groups 2-4) is to receive a medicated daily feed from study days 0-49. The medicated daily feed is to be offered to the dogs for 1 hour on each of days 0-49 according to test groups listed in TABLE 7.
# Sample results of the average plasma concentration of isoxazoline in a canine's blood at different dosage levels are shown in TABLE 8 and FIG. 9 for mivorilaner.
# [2] = Plasma concentration of mivorilaner in dogs at various daily oral doses (Example 2); assay type: in vivo; settings: average plasma
# Description: Methods: A pool of 46 dogs are to be preliminarily infested with ˜50 unfed adult R. sanguineus ticks in order to produce dogs that can suitably sustain a reliable infestation rate, defined as approximately 25% of attached ticks being live at the end of a 48-hour period. The 40 dogs with the highest live attached tick counts are to be selected for inclusion in the study. The dogs are to be randomly assigned to one of a control group and 4 treatment groups.
# The dogs are to be housed individually during the study period and are to be fed a commercial dry dog food ration with ad libitum access to water.
# Each dog in a treatment group (test groups 2-5) is to receive by mouth a liquid formulation of isoxazoline.
# Dogs in the control group are not to receive isoxazoline or any other tick control treatment. Each dog in the treatment group is to be offered its daily ration (dry food) and the individual doses of liquid formulation are to be administered after the individual dog has eaten at least 25% of its total daily ration. After receiving the dose of isoxazoline, the dogs are to be allowed to continue eating. Each dog in treatment groups 3-5 and the control group is to be experimentally infested with 50 adult ticks on test days −2, 5, 12, 19, 28, 35 and 42. Dogs in group 2 are to be infested with 50 adult ticks on test days 19, 28 and 35. Comb counts for live adult ticks are to be conducted on days 2, 7, 14, 21, 30, 37 and 44.
# Sample results of the average plasma concentration of isoxazoline in a canine's blood at different dosage levels of mivorilaner are shown in TABLE 3 and FIG. 4.
smiles,measurement,setting,value
"O=C(CNC(=O)c1sc(C2=NO[C@@](c3cc(Cl)c(F)c(Cl)c3)(C(F)(F)F)C2)c2c1CCC2)NCC(F)F [Mivorilaner, 3-[(5S)-5-(3,5-dichloro-4-fluorophenyl)-5-(trifluoromethyl)-4,5-dihydroisoxazol-3-yl]-N-[2-[(2,2-difluoroethyl)amino]-2-oxoethyl]-5,6-dihydro-4H-cyclopenta[c]thiophene-1-carboxamide]",average plasma concentration of isoxazoline in a canine's blood,[1],11600.00
same,Mivorilaner Concentration,"[2]; Group 2 (0.125 mg/kg/day) oral fed, 72 hours after initial dose",135.83 ng/mL
same,Mivorilaner Concentration,"[2]; Group 2 (0.125 mg/kg/day) oral fed, 120 hours after initial dose",212.63 ng/mL
same,Mivorilaner Concentration,"[2]; Group 2 (0.125 mg/kg/day) oral fed, 168 hours after initial dose",243.63 ng/mL
same,Mivorilaner Concentration,"[2]; Group 2 (0.125 mg/kg/day) oral fed, 336 hours after initial dose",383.75 ng/mL
same,Mivorilaner Concentration,"[2]; Group 2 (0.125 mg/kg/day) oral fed, 504 hours after initial dose",404.13 ng/mL
same,Mivorilaner Concentration,"[2]; Group 2 (0.125 mg/kg/day) oral fed, 720 hours after initial dose",419.50 ng/mL
same,Mivorilaner Concentration,"[2]; Group 2 (0.125 mg/kg/day) oral fed, 888 hours after initial dose",447.50 ng/mL
same,Mivorilaner Concentration,"[2]; Group 2 (0.125 mg/kg/day) oral fed, 1056 hours after initial dose",428.38 ng/mL
same,Mivorilaner Concentration,"[2]; Group 2 (0.125 mg/kg/day) oral fed, 1224 hours after initial dose",485.50 ng/mL
same,Mivorilaner Concentration,"[2]; Group 2 (0.125 mg/kg/day) oral fed, 1440 hours after initial dose",897.50 ng/mL
same,Mivorilaner Concentration,"[2]; Group 3 (0.25 mg/kg/day) oral fed, 72 hours after initial dose",283.13 ng/mL
same,Mivorilaner Concentration,"[2]; Group 3 (0.25 mg/kg/day) oral fed, 120 hours after initial dose",450.00 ng/mL
same,Mivorilaner Concentration,"[2]; Group 3 (0.25 mg/kg/day) oral fed, 168 hours after initial dose",579.13 ng/mL
same,Mivorilaner Concentration,"[2]; Group 3 (0.25 mg/kg/day) oral fed, 336 hours after initial dose",883.38 ng/mL
same,Mivorilaner Concentration,"[2]; Group 3 (0.25 mg/kg/day) oral fed, 504 hours after initial dose",877.75 ng/mL
same,Mivorilaner Concentration,"[2]; Group 3 (0.25 mg/kg/day) oral fed, 720 hours after initial dose",1015.63 ng/mL
same,Mivorilaner Concentration,"[2]; Group 3 (0.25 mg/kg/day) oral fed, 888 hours after initial dose",1003.88 ng/mL
same,Mivorilaner Concentration,"[2]; Group 3 (0.25 mg/kg/day) oral fed, 1056 hours after initial dose",945.13 ng/mL
same,Mivorilaner Concentration,"[2]; Group 3 (0.25 mg/kg/day) oral fed, 1224 hours after initial dose",1040.88 ng/mL
same,Mivorilaner Concentration,"[2]; Group 3 (0.25 mg/kg/day) oral fed, 1440 hours after initial dose",999.13 ng/mL
same,Mivorilaner Concentration,"[2]; Group 4 (0.5 mg/kg/day) oral fed, 72 hours after initial dose",474.25 ng/mL
same,Mivorilaner Concentration,"[2]; Group 4 (0.5 mg/kg/day) oral fed, 120 hours after initial dose",763.13 ng/mL
same,Mivorilaner Concentration,"[2]; Group 4 (0.5 mg/kg/day) oral fed, 168 hours after initial dose",888.00 ng/mL
same,Mivorilaner Concentration,"[2]; Group 4 (0.5 mg/kg/day) oral fed, 336 hours after initial dose",1457.88 ng/mL
same,Mivorilaner Concentration,"[2]; Group 4 (0.5 mg/kg/day) oral fed, 504 hours after initial dose",1633.25 ng/mL
same,Mivorilaner Concentration,"[2]; Group 4 (0.5 mg/kg/day) oral fed, 720 hours after initial dose",1873.75 ng/mL
same,Mivorilaner Concentration,"[2]; Group 4 (0.5 mg/kg/day) oral fed, 888 hours after initial dose",1986.25 ng/mL
same,Mivorilaner Concentration,"[2]; Group 4 (0.5 mg/kg/day) oral fed, 1056 hours after initial dose",2012.50 ng/mL
same,Mivorilaner Concentration,"[2]; Group 4 (0.5 mg/kg/day) oral fed, 1224 hours after initial dose",2318.75 ng/mL
same,Mivorilaner Concentration,"[2]; Group 4 (0.5 mg/kg/day) oral fed, 1440 hours after initial dose",2298.75 ng/mL
same,Mivorilaner Concentration,"[2]; Group 5 (1.0 mg/kg/day) oral fed, 72 hours after initial dose",951.25 ng/mL
same,Mivorilaner Concentration,"[2]; Group 5 (1.0 mg/kg/day) oral fed, 120 hours after initial dose",1510.00 ng/mL
same,Mivorilaner Concentration,"[2]; Group 5 (1.0 mg/kg/day) oral fed, 168 hours after initial dose",1793.75 ng/mL
same,Mivorilaner Concentration,"[2]; Group 5 (1.0 mg/kg/day) oral fed, 336 hours after initial dose",2691.25 ng/mL
same,Mivorilaner Concentration,"[2]; Group 5 (1.0 mg/kg/day) oral fed, 504 hours after initial dose",3016.25 ng/mL
same,Mivorilaner Concentration,"[2]; Group 5 (1.0 mg/kg/day) oral fed, 720 hours after initial dose",3756.25 ng/mL
same,Mivorilaner Concentration,"[2]; Group 5 (1.0 mg/kg/day) oral fed, 888 hours after initial dose",3861.25 ng/mL
same,Mivorilaner Concentration,"[2]; Group 5 (1.0 mg/kg/day) oral fed, 1056 hours after initial dose",4263.75 ng/mL
same,Mivorilaner Concentration,"[2]; Group 5 (1.0 mg/kg/day) oral fed, 1224 hours after initial dose",4838.75 ng/mL
same,Mivorilaner Concentration,"[2]; Group 5 (1.0 mg/kg/day) oral fed, 1440 hours after initial dose",4142.50 ng/mL
